# According to patent US8501442B2, “Determination of 5-ASA efficacy in CRC prevention and/or treatment by gene expression analysis” (Sofar SpA, priority 2009, dated 2013):
# Tests used:
# Assay type in all cases: cell-based
# [1] = tested on: onco-suppressor genes in CaCo2 cells; test: Affimetrix microarray analysis of transcriptome changes in CaCo2 cells; conditions: 20 mM 5-ASA for 96 h
# Experimental: (§1) To investigate the molecular mechanisms underlying this effect we performed a microarray analysis, using the Affimetrix methodology, in order to assess the transcriptome changes determined on CaCo2 cells by treatment with 20 mM 5-ASA for 96 h. […] This gene codes for a member of the cadherin superfamily and, based on previous reports by other authors, appeared as a putative inhibitor of the β-catenin signalling pathway, i.e. a cell proliferation pathway mediated by the activity of the β-catenin transcription factor^16,17. The relevance of this finding resides in the observation that the β-catenin signalling pathway is constitutively activated in CRC. […] Up-regulation of mRNA expression resulted to be 12-fold for μ-protocadherin, 16-fold for p21^waf-1, 4 to 6-fold for KLF4 and CEBPα and 2 to 3-fold Axin 1 and ICAT. […] The up-regulation of these genes appeared also more pronounced at the end of stimulation (96 h). mRNA expression of E-cadherin and β-catenin appeared, conversely, unaffected (FIG. 1).
# [2] = tested on: μ-protocadherin protein in CaCo2 cells; test: Time course Western blot of μ-protocadherin protein expression in CaCo2 cells; conditions: 20 mM 5-ASA for up to 96 h, 24 h intervals
# Experimental: To confirm μ-protocadherin induction we performed a time course Western blot analysis on CaCo2 cells undergoing exposure to 20 mM 5-ASA for up to 96 h. […] FIG. 2. Results of a time course Western blot analysis evaluating the expression of μ-protocadherin protein in CaCo2 cells treated with 5-ASA. This analysis was performed on cytoplasmic extracts of studied cells, at 24 h intervals following treatment with 5-ASA. Analyzed cell samples are indicated on the top. Normalization of the protein amount loaded in each lane was achieved using a pan-actin antibody able to detect either cytoplasmic or nuclear actin.
# [3] = tested on: β-catenin signalling pathway genes in HT29 colon adenocarcinoma cell line; test: QRT-PCR analysis of β-catenin signalling pathway genes in HT29 cells; conditions: 20 mM 5-ASA, 96 h
# Experimental: These findings were also confirmed in another colon adenocarcinoma cell line, named HT29, under the same experimental conditions.
# FIG. 5. Biological effects determined by treatment with 5-ASA on the HT29 colon adenocarcinoma cell line. The mRNA expression variations of gene belonging to the β-catenin signalling pathway were analyzed in HT29 cells using the QRT-PCR reaction under the experimental conditions described in Results and in FIG. 1.
# Total RNA was extracted from cell suspensions and frozen tissues by means of the Qiagen total RNA purification kit as recommended by the manufacturer (Qiagen, Valencia, Calif.). RNA integrity and concentration were verified using the Bio-Analyzer technique (Applied Biosystem, Foster City, Calif.). 100 ng of total RNA were reverse transcribed using the High Capacity cDNA Archive Kit (Applied Biosystems) according to the manufacturer's instructions. QRT-PCR was performed with an ABI PRISM 7900 sequence detection system (Applied Biosystems) to quantify the relative levels of mRNA in the samples. […] Evaluation of QRT-PCR signals was performed using the ΔΔCt relative quantitation method. […] The values obtained were expressed in terms of relative quantity (RQ) of mRNA level variation.
# [4] = tested on: μ-protocadherin/β-catenin protein complex in CaCo2 cells; test: Coimmunoprecipitation analysis of μ-protocadherin/β-catenin protein interaction in CaCo2 cells; conditions: lysates of CaCo2 cells, 20 mM 5-ASA for 96 h
# Experimental: The hypothesis arising from our data would directly imply that μ-protocadherin, as other proteins belonging to the cadherin superfamily, is able to bind β-catenin on the plasmatic membrane. To verify this interaction we performed co-immunoprecipitation experiments in which β-catenin was immunoprecipitated from lysates of CaCo2 cells treated with 20 mM 5-ASA for 96 h using a specific antibody and the immunoprecipitate was subsequently analyzed by Western blot carried out with a distinct antibody able to detect μ-protocadherin. […] FIG. 4. Coimmunoprecipitation analysis of μ-protocadherin/β-catenin protein interaction. […] Western blot analysis of μ-protocadherin expression was performed in cell lysates of control untreated and 5-ASA treated CaCo2 cells (Input, left panel), immunoprecipitates obtained by the same cells using normal control IgG (middle panel) and immunoprecipitates obtained by the same cells using an anti-β-catenin antibody (right panel). IP, immunoprecipitation; WB, Western blot; Ab antibody.
# [5] = tested on: β-catenin protein in CaCo2 cells; test: Immunofluorescence assay of sub-cellular distribution of β-catenin in CaCo2 cells; conditions: 20 mM 5-ASA, after 96 h of culture
# Experimental: Due to the particular regulation mechanisms controlling the β-catenin signalling pathway, levels of β-catenin protein observed in the different subcellular compartments represent reliable indicators of the extent of its activation. Based on this premise we performed an immunofluorescence assay to assess the sub-cellular distribution of β-catenin protein in CaCo2 cells undergoing treatment with 20 mM 5-ASA. […] FIG. 3. Immunofluorescence analysis of β-catenin protein on CaCo2 cells exposed to 5-ASA treatment. Cells were stimulated with 5-ASA as explained in Results and subsequently stained with an anti-β-catenin primary antibody and a FITC conjugated secondary antibody (green fluorescence). Untreated control cells (CONT.) were also analyzed. Nuclei were counterstained with DAPI (blue fluorescence). Merge images, of the two analyzed fluorescence signals, are also shown.
# [6] = tested on: CaCo2 cells; test: Proliferation of CaCo2 cells under 5-ASA treatment (preliminary experiments)
# [7] = tested on: β-catenin signalling pathway genes in CaCo2 colon adenocarcinoma cells; test: QRT-PCR analysis of genes regulating the β-catenin signalling pathway in CaCo2 cells; conditions: 20 mM 5-ASA
# Experimental: as §1
# FIG. 1. QRT-PCR analysis of genes belonging to the β-catenin signalling pathway in CaCo2 cells treated with 5-ASA. Cells under the experimental conditions described in Results were analyzed by QRT-PCR to estimate the mRNA expression of genes belonging to the β-catenin signalling pathway, all indicated on y-axis. The effect determined by 5-ASA treatment on the mRNA expression of KLF4 and CEBPα onco-suppressor genes is also shown.
# Total RNA was extracted from cell suspensions and frozen tissues by means of the Qiagen total RNA purification kit as recommended by the manufacturer (Qiagen, Valencia, Calif.). RNA integrity and concentration were verified using the Bio-Analyzer technique (Applied Biosystem, Foster City, Calif.). 100 ng of total RNA were reverse transcribed using the High Capacity cDNA Archive Kit (Applied Biosystems) according to the manufacturer's instructions. QRT-PCR was performed with an ABI PRISM 7900 sequence detection system (Applied Biosystems) to quantify the relative levels of mRNA in the samples. Primers and probes for mRNA amplification of μ-protocadherin, E-cadherin, β-catenin, Axin-1, Inhibitor of β-Catenin and TCF-4 (ICAT), p21^waf-1, KLF4, CEBPα, and glyceraldehyde-3-phosphate dehydrogenase (GAPDH) were designed by Applied Biosystems. Each cDNA sample was run in triplicate in 50 μl reaction volume using Taqman Universal PCR Master Mix (Applied Biosystems). Thermal cycling was started with an initial denaturation at 50° C. for 2 min and 95° C. for 10 min, followed by 40 thermal cycles of 15 sec at 95° C. and 1 min at 60° C. Evaluation of QRT-PCR signals was performed using the ΔΔCt relative quantitation method. […] The values obtained were expressed in terms of relative quantity (RQ) of mRNA level variation.
# [8] = 48 and 96 h (more pronounced at 96 h)
compound,measurement,setting,value
"Nc1ccc(O)c(C(=O)O)c1 [5-ASA, 5 aminosalicylic acid]","expression of onco-suppressor genes (μ-protocadherin, KLF4, CEBPα) by microarray",[1],up-regulated expression
same,μ-protocadherin protein expression in cytoplasmic extract (Western blot),[2],gradually but remarkably induced
same,induction of p21^waf-1 mRNA expression,[3],5 fold
same,induction of μ-protocadherin mRNA expression,[3],3 fold
same,μ-protocadherin bands (93 and 110 kDa) in β-catenin immunoprecipitate,[4],interacting with β-catenin
same,sub-cellular localization of β-catenin signal,[5],almost exclusively localized in the plasmatic membrane
same,proliferation activity of CaCo2 cells,[6],inhibits the proliferation activity
same,mRNA expression of E-cadherin,[7]; 48 and 96 h,unaffected
same,mRNA expression of β-catenin,[7]; 48 and 96 h,unaffected
same,up-regulation of p21^waf-1 mRNA expression,[7]; [8],16 fold
same,up-regulation of μ-protocadherin mRNA expression,[7]; [8],12 fold
